Experimental data from patent EP0982318A2, “Enchanced phosphorylation of P53 by ATM in response to DNA damage” (RAMOT UNIVERSITY AUTHORITY FOR APPLIED RESEARCH & …, priority 1998, dated 2000).
Where two headings read alike, the source gives them in different places.

Assays:
ATM [1] = target: T1, ATM (Homo sapiens, UniProt Q13315); assay: ATM immune complex protein kinase assay (inhibition by wortmannin); type: biochemical
T1 construct: endogenous in cells; host or cells: cultured cells, lysed and immunoprecipitated with anti-ATM monoclonal antibody
T1 sequence (Q13315 whole entry): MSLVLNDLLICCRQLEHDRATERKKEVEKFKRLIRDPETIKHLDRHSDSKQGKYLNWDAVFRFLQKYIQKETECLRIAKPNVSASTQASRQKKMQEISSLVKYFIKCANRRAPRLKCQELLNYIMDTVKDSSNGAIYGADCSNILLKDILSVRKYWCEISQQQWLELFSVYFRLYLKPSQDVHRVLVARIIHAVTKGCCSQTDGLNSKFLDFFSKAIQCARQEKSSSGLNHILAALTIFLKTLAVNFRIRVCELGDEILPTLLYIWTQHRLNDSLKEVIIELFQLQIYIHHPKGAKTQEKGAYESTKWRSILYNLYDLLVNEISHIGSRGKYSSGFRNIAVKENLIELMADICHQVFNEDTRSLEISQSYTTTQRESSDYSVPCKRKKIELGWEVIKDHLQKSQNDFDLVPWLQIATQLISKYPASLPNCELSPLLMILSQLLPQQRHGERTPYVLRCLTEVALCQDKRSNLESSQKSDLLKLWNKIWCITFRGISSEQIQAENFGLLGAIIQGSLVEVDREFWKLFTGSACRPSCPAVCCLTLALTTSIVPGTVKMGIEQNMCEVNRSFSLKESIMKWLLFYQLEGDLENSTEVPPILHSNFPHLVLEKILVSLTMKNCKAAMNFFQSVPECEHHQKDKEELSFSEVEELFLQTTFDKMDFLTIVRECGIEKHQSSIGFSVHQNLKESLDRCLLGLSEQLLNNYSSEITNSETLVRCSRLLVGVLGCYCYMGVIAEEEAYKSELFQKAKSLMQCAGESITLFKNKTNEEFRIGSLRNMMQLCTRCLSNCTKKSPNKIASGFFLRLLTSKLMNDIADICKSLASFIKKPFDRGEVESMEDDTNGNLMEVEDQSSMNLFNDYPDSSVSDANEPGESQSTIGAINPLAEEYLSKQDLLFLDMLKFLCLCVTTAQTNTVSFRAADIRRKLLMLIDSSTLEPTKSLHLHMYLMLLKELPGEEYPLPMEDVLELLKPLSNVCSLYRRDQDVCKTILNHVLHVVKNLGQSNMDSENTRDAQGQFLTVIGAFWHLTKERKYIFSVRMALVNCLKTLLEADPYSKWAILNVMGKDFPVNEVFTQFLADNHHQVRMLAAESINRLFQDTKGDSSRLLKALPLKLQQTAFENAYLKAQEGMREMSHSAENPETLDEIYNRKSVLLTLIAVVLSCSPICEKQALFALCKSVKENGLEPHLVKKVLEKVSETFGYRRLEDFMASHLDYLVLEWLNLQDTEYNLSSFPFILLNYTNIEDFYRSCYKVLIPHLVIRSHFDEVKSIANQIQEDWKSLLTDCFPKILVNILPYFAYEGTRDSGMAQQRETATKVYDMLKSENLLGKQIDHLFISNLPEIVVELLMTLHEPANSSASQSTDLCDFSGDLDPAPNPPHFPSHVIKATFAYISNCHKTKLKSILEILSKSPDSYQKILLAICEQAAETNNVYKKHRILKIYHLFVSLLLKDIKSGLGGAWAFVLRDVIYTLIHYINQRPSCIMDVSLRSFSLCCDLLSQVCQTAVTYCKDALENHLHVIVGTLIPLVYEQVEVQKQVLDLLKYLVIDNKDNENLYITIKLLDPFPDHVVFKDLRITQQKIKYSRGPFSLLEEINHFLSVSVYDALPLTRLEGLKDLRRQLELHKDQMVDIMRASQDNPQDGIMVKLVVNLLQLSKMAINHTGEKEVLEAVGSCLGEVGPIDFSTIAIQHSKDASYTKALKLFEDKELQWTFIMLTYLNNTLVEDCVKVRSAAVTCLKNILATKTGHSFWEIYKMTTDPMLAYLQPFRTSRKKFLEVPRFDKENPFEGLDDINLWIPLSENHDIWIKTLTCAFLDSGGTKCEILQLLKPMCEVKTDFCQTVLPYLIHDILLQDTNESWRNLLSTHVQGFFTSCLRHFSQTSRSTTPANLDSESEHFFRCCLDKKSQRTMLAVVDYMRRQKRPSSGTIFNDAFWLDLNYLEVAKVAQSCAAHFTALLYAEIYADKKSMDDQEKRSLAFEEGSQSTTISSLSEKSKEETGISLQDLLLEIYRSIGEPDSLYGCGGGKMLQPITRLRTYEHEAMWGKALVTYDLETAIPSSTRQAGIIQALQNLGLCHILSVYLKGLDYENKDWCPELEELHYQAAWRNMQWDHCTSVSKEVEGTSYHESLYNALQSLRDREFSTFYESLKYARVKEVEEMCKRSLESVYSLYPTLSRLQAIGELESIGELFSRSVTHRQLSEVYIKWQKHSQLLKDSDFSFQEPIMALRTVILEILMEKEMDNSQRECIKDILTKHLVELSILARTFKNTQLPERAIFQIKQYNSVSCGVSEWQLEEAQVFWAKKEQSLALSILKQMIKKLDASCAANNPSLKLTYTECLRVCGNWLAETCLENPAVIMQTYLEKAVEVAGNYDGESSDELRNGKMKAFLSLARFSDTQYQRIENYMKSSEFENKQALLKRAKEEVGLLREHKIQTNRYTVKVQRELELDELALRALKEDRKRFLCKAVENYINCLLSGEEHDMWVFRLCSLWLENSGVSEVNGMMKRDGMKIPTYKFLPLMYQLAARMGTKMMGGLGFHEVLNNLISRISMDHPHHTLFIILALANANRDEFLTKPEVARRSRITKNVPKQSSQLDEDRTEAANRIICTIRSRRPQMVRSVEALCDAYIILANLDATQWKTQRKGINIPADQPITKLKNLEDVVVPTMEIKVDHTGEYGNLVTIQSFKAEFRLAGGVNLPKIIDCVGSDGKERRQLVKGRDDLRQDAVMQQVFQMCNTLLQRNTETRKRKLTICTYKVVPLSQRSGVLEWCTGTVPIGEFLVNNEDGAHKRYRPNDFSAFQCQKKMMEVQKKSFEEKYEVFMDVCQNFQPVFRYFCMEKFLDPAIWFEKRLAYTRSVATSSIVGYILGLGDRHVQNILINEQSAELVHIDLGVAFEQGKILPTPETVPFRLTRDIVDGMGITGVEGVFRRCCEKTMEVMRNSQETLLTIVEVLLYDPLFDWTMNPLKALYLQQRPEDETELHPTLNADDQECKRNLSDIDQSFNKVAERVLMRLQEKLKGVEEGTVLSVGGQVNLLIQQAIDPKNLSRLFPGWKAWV
Description: (§1) For these experiments, 5X10^6 cells were washed in ice-cold phosphate buffered saline and lysed in 700 µl of 10 mM Tris-HCl (pH 7.5), 150 mM NaCl, 0.2% dodecyl maltoside (Sigma), 5 mM EDTA, 50 mM NaF, 2 mM phenylmethylsulfonylfluoride, 100 µM NaVO4, 2 µg/ml aprotonin (lysis buffer). Freshly prepared cell lysates were incubated for 2 hours at 4°C on a rotator with 10 µl of hybridoma supernatants. Fifty µl of magnetic beads coated with anti-mouse IgG (Dynabeads M-450, DYNAL, Oslo, Norway) were added and the mixture was further rotated at 4°C for 2 hours. Immune complexes were collected using a magnetic stand (DYNAL) and washed 3 times with lysis buffer. For Western blotting analysis, 1/3 of this mixture was loaded on a polyacrylamide-SDS gel which was later blotted onto a nitrocellulose membrane (Nitrocell MFF, Pharmacia Biotech, San Francisco, CA) as previously described [ref 8]. Immune complexes were washed twice with kinase buffer (50 mM Hepes, pH 7.5, 150 mM NaCl, 4 mM MnCl2, 6 mM MgCl2, 10% v/v glycerol, 1 mM DTT, 100 µM NaVO4). Two hundred ng - 1 µg substrate, 10 µCi [32P]ATP and ATP to final concentration of 5 µM were added, and the reaction mixtures were incubated at 30°C for 3-15 minutes. […]
ATM immune complexes were incubated with various concentrations of the drug and washed with the reaction buffer before kinase activity was measured. […]

ATM [2] = assay: Kinase activity of ATM immunoprecipitated from cells treated with NCS; type: cell-based, human
Description: as §1, with “NaVO4).” for “NaVO4). Two hundred ng - 1 µg substrate, 10 µCi [32P]ATP and ATP to final concentration of 5 µM were added, and the reaction mixtures were incubated at 30°C for 3-15 minutes.”
Kinase activity was assayed using the p53-N47 substrate. The histogram presents quantitation of the data from the top panel (B). […]
U: untreated cells. The curve presents quantitation of the data from the top panel.

Compound	IC50 (ATM [1]) [nM]	IC50 (ATM [1]; ATM immune complexes exposed to wortmannin for 30 minutes and washed before kinase assay, PHAS-I as substrate, activity normalized to amount of ATM protein, read-out: IC50 (sensitivity of ATM-associated kinase activity to wortmannin)) [nM]	maximal enhancement of ATM's activity compared to its basal activity (ATM [2]; nine experiments, ATM immunoprecipitated from cells after NCS treatment, p53-N47 substrate) [fold]	time of second enhancement of ATM's activity following treatment (ATM [2]; time course after NCS (50 ng/ml), Figure 3B)
COC[C@H]1OC(=O)c2coc3c2[C@@]1(C)C1=C(C3=O)[C@@H]2CCC(=O)[C@@]2(C)C[C@H]1OC(C)=O [wortmannin]	80	100	–	–
neocarzinostatin [NCS]	–	–	4.4±0.8	about 120 minutes
